Literature values as cited in patent publication US9241965B2, “Composition containing Prunus mume extract for external application to skin” (AMOREPACIFIC CORPORATION, priority 2010, dated 2016).

Target: T1, TRPV1 (Homo sapiens, UniProt Q8NER1)
T1 construct: endogenous in cells; host or cells: HaCAT cells
Details: skin temperature about 42° C.

T1 sequence (Q8NER1 whole entry, species assumed): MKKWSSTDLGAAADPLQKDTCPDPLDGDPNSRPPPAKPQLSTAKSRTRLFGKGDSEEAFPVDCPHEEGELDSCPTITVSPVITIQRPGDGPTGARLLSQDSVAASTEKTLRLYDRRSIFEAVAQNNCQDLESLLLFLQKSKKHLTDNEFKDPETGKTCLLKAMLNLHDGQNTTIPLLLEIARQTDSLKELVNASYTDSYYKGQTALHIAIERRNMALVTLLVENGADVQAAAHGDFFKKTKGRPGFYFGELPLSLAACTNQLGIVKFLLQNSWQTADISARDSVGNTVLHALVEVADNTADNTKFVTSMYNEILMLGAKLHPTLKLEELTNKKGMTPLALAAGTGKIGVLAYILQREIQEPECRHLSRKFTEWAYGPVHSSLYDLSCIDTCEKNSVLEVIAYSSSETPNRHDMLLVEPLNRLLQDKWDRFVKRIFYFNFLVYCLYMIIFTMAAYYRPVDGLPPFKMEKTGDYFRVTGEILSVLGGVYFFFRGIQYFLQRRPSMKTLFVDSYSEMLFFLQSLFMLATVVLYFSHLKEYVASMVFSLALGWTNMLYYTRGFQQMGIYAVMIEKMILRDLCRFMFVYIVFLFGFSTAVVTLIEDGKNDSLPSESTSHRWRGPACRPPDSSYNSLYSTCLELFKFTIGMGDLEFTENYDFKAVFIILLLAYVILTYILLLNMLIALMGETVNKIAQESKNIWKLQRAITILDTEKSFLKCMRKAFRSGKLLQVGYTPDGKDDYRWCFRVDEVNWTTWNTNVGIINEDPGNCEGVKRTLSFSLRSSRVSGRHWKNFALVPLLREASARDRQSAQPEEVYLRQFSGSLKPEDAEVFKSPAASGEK

Compound: Oc1cc2c(cc1O)CN(C(=S)NCCc1ccc(Cl)cc1)CCC2 [capsazepine]
- rate of skin barrier recovery: restores the rate of skin barrier recovery to normal level
